Measured values from patent US7282589B2, “Acid addition salt of optically active piperidine compound and process for preparing the same” (UBE Industries, Ltd., priority 1996, dated 2007).
Like-named read-outs stand apart in the source and are kept apart here.

Legend:
[1] = system: 7 days homologous PCA reaction; assay: Inhibitory effect on 7 days homologous PCA reaction; assay type: in vivo, Hartley male guinea pigs; conditions: for Inhibitory ratio (%): p.o., 2 hours before antigen
Description: By using Hartley male guinea pigs with a body weight of 250 to 550 g, inhibitory effect on PCA reaction was tested according to the method of Levine et al. (Journal of Immunology, vol. 106, p. 29, 1971 (B. B. Levine, H. Chang, Jr., and N. M. Vaz, J. Immunol. 106, 29 (1971))). 0.05 ml of guinea pig anti-BPO.BGG-IgE serum diluted 32-fold with a physiological saline was hypodermically administrated to the guinea pig through two points of right and left sandwiching the median line of the back which had been shaved one day before.
After 7 days, 1 ml of a 1% Evans Blue physiological saline solution containing 500 μg of benzylpenicilloyl bovine serum albumin (BPO.BSA) was intravenously administrated to induce a PCA reaction. Thirty minutes later, exsanguination was carried out, and the skin was peeled off and the amount of the leaked dye was measured according to the method of Katayama et al. (Microbiological Immunology, vol. 22, p. 89, 1978 (S. Katayama, H. Shinoya and S. Ohtake, Microbiol. Immunol., 22, 89 (1978))). The test animals were fasted overnight (about 16 hours) and the test substances were orally administrated 2 hours before the administration of the antigen.

[2] = system: histamine-induced death; assay: Protective effects on histamine-induced death; assay type: in vivo, Hartley male guinea pigs; conditions: for Survival ratio (%): p.o., 2 hours before 1.25 mg/kg histamine hydrochloride i.v.; for ED50: Cavia porcellus, po, obtained from the dose-response curve of Table 1
Description: By using Hartley male guinea pigs with a body weight of 250 to 550 g, protective effects on histamine-induced death were tested according to the method of Lands et al. (Journal of Pharmacological Experimental Therapy, vol. 95, p. 45, 1949 (A. M. Lands, J. O. Hoppe, O. H. Siegmund, and F. F. Luduena, J. Pharmacol. Exp. Ther., 95, 45 (1949))). Test animals were fasted overnight (about 14 hours), and then 5 ml/kg of a test substance was orally administrated. Two hours after administration of the test substance, 1.25 mg/kg of histamine hydrochloride was intravenously administrated to induce histamine shock. After induction, symptom of the test animals was observed and the histamine-shock appearing time was measured, and termination of respiration or restoration was also observed.

[3] = Stability test (40° C. and 75% relative humidity, one month); assay type: physicochemical; conditions: for physicochemical stability (conclusion in words): from the test results of Table 4
Description: After pulverizing the above-mentioned respective compounds, powder passed through a 500 μm sieve was made to be a test sample. Respective samples were divided and placed in glass Petri dishes and preserved at 40° C. and 75% relative humidity. One month later, the samples were taken out, and a weight of contained analogues and a content of (R)-isomer by racemization were measured and compared with those at the beginning of the test.
The sample was dissolved in a mobile phase and the solution was adjusted so as to contain about 0.1% of the sample per ml. With regard to 25 μl of the sample solution, percentages of the respective peak area were measured by a liquid chromatography using an automatic integration method.
About 5 mg of the sample was dissolved in the mobile phase and the solution was adjusted so as to contain about 0.1% of the sample per ml. With regard to 1.5 μl of the sample solution, percentages of the respective peak area were measured by a liquid chromatography using an automatic integration method, and an amount of the (R)-isomer (%) was calculated by the following equation.
[formula] • Q^S: percentage of peak area of (S)-isomer • Q^R: percentage of peak area of (R)-isomer Operation Conditions

[4] = Experiment 1: crystallization of acid addition salts of (S)-piperidine compound (I); assay type: physicochemical
Description: (S)-Piperidine compound of the formula (I) was dissolved in an organic solvent, and after adding an acid shown in Table 3 to make a uniform solution, the mixture was allowed to stand. When no precipitate is obtained, after the solvent was removed, a less polar solvent was added to the residue and the mixture was allowed to stand again. Except for the case where the acid addition salt is oily or syrupy, the obtained solid material was collected by filtration and dried under reduced pressure.

[5] = Pharmacological effects of the metabolite compared with the (S)-ester
[6] = 1 month later, 40° C. and 75% relative humidity

CCOC(=O)CCCN1CCC(O[C@H](c2ccc(Cl)cc2)c2ccccn2)CC1.O=C(O)/C=C/C(=O)O [(R)-ester, ethyl (R)-4-[4-[(4-chlorophenyl) (2-pyridyl)methoxy]piperidino]butanoate fumaric acid salt]
Inhibitory ratio (%) ([1]; 0.3 mg/kg): −3.1%
Inhibitory ratio (%) ([1]; 1.0 mg/kg): 13.6%
Inhibitory ratio (%) ([1]; 3.0 mg/kg): 45.8%
Inhibitory ratio (%) ([1]; 10.0 mg/kg): 59.5%
Survival ratio (%) ([2]; 0.3 mg/kg): 0%
Survival ratio (%) ([2]; 0.6 mg/kg): 0%
Survival ratio (%) ([2]; 1.0 mg/kg): 50.0%
Survival ratio (%) ([2]; 3.0 mg/kg): 62.5%
Survival ratio (%) ([2]; 10.0 mg/kg): 100%
ED50 [2]: 1 mg/kg

CCOC(=O)CCCN1CCC(O[C@@H](c2ccc(Cl)cc2)c2ccccn2)CC1.O=C(O)/C=C/C(=O)O [(S)-ester, ethyl (S)-4-[4-[(4-chlorophenyl)(2-pyridyl)methoxy]piperidino]butanoate fumaric acid salt]
Inhibitory ratio (%) ([1]; 0.01 mg/kg): 37.3%
Inhibitory ratio (%) ([1]; 0.02 mg/kg): 46.3%
Inhibitory ratio (%) ([1]; 0.03 mg/kg): 56.9%
Inhibitory ratio (%) ([1]; 0.06 mg/kg): 63.4%
Inhibitory ratio (%) ([1]; 0.1 mg/kg): 58.8%
potency relative to the (R)-ester ([1]; compared at the dose which inhibits 50% of the maximum value (i.e., 35%)): ≥ 100 fold
Survival ratio (%) ([2]; 0.01 mg/kg): 0%
Survival ratio (%) ([2]; 0.02 mg/kg): 42.9%
Survival ratio (%) ([2]; 0.03 mg/kg): 62.5%
Survival ratio (%) ([2]; 0.06 mg/kg): 100%
Survival ratio (%) ([2]; 0.1 mg/kg): 100%
ED50 [2]: 0.023 mg/kg
potency relative to the (R)-ester ([2]; ratio of ED50 values): about 43 fold
Amount of moisture absorption [3, 6]: 0.45%
Content of (R)-isomer [3, 6]: 1.15%
Content of analogue substance [3, 6]: 2.65%
Content of (R)-isomer ([3]; Beginning): 0.87%
Content of analogue substance ([3]; Beginning): 1.72%
hygroscopicity (in words) ([3]; as shown in the stability test results (Table 4)): hygroscopic
physicochemical stability (conclusion in words) [3]: physicochemically unstable

O=C(O)CCCN1CCC(O[C@@H](c2ccc(Cl)cc2)c2ccccn2)CC1.O=S(=O)(O)c1ccccc1 [Benzenesulfonic acid salt, (S)-4-[4-[(4-chlorophenyl)(2-pyridyl)-methoxy]piperidino]butanoic acid monobenzenesulfonic acid salt]
Characteristics of acid addition salt [4]: non-hygroscopic crystals
Amount of moisture absorption [3, 6]: 0.18%
Content of (R)-isomer [3, 6]: 0.39%
Content of analogue substance [3, 6]: 0.16%
Content of (R)-isomer ([3]; Beginning): 0.37%
Content of analogue substance ([3]; Beginning): 0.15%
physicochemical stability (conclusion in words) [3]: excellent physicochemical stabilities

O=C(O)CCCN1CCC(O[C@@H](c2ccc(Cl)cc2)c2ccccn2)CC1.O=C(O)c1ccccc1 [Benzoic acid salt, (S)-4-[4-[(4-chlorophenyl)(2-pyridyl)-methoxy]piperidino]butanoic acid monobenzoic acid salt]
Characteristics of acid addition salt [4]: non-hygroscopic crystals
Amount of moisture absorption [3, 6]: 0.05%
Content of (R)-isomer [3, 6]: 0.40%
Content of analogue substance [3, 6]: 1.20%
Content of (R)-isomer ([3]; Beginning): 0.37%
Content of analogue substance ([3]; Beginning): 1.20%
physicochemical stability (conclusion in words) [3]: excellent physicochemical stabilities

O=C(O)CCCN1CCC(O[C@@H](c2ccc(Cl)cc2)c2ccccn2)CC1 [Example 1, (S)-4-[4-[(4-chlorophenyl)(2-pyridyl)-methoxy]piperidino]butanoic acid]
pharmacological effects compared with the (S)-ester [5]: substantially shows the same pharmacological effects as the (S)-ester

C[C@H](O)C(=O)O [L-Lactic acid]
Characteristics of acid addition salt ([4]; acid molar ratio 1): Oily product
